Test results: paper PMC12720098, “Prolintane analogs as hybrid monoamine transporter ligands: Structural determinants and species differences” (The Journal of Biological Chemistry, 2025)
Entries after “also recorded” stand apart in the source; their conditions may differ. Structures can show the parent of a compound that is named as a salt. Where two headings read alike, the source gives them in different places.

What was measured:
hDAT = target: T1, hDAT (Homo sapiens, UniProt Q01959); experiment: Batch release assay ([3H]MPP+) in transfected HEK293 cells; assay type: cell-based; conditions: % efflux of total uptake, compounds approximately at IC50 concentration
T1 construct: expressed in transfected cells
Method: (§1) Batch release assays were performed as described previously ([44]). In brief, HEK293 cells stably expressing monoamine transporters were seeded similar to the procedure used for uptake inhibition assays. A day after seeding cells were pre-loaded with 50 μl/well 0.015 μM [^3H]MPP^+ (hDAT, hNET), or 0.08 μM [^3H]5-HT (hSERT) for 20 min at 37 °C. Then cells were washed four times for 3 to 4 min each and further incubated with KHB or KHB + monensin. After 10 min of incubation, two (screening) to four (full traces; hSERT) 2 min incubations were performed to establish a baseline release without substance. […] Each fraction was transferred to an empty well in the 96-well plate. For screening, a known inhibitor (hDAT, hNET: 50 μM GBR12909) and releaser (hDAT, hNET: 10 μM S-(+)-amphetamine) were used as controls. Ultima Gold XR scintillation cocktail was added to the remaining cells, and each well contained a release fraction. The counted radioactivity in the respective fraction was expressed as a percentage of total radioactivity at the start of the fraction.
(§2) Half-maximal inhibitory concentrations (IC50) were obtained from fitting a sigmoidal dose–response ( Y=Bottom+Top−Bottom/1+10^((LogIC50−X)·HillSlope) ) in GraphPad Prism 10.3.1 (GraphPad Software Inc.). Uptake inhibition data were evaluated by one-way ANOVA followed by Tukey's multiple comparisons test. Release data were analyzed using a two-way ANOVA (batch release) or a mixed-effects model with Geisser-Greenhouse correction (time-dependent traces) employing Šidák correction for comparing differences between compounds with or without the addition of monensin.

hNET = target: T2, hNET (Homo sapiens, UniProt P23975); experiment: as above; assay type: cell-based; conditions: % efflux of total uptake, compounds approximately at IC50 concentration
T2 construct: expressed in transfected cells
Method: as §1, §2

native HEK293 cells = experiment: Whole-cell patch-clamp control in native HEK293 cells without transfection; assay type: cell-based, human; conditions: prolintane 30 µM, 5-HT 10 µM (Fig. S3)
Method: One day prior to recording, either native HEK293 cells or HEK293 cells stably expressing monoamine transporters were seeded at low density onto PDL-coated 35 mm dishes. Patch-clamp experiments were conducted at a holding potential of −60 mV, with substrate-induced currents recorded at room temperature (20–24 °C) using an […] amplifier and pClamp 11.2 software (MDS Analytical Technologies). During recordings, cells were continuously superfused via a DAD-12 perfusion system and an 8-tube manifold (ALA Scientific Instruments), delivering an external solution composed of 140 mM NaCl, 2.5 mM CaCl2, 3 mM KCl, 2 mM MgCl2, 20 mM glucose, and 10 mM HEPES, with pH adjusted to 7.3 using NaOH. The intracellular pipette solution, designed to mimic physiological ionic conditions, contained 133 mM potassium gluconate, 5.9 mM NaCl, 1 mM CaCl2, 0.7 mM MgCl2, 10 mM HEPES, and 10 mM EGTA, with pH set to 7.2 using KOH. Currents were filtered at 1 kHz and digitized at 10 kHz via a Digidata 1550 digitizer (MDS Analytical Technologies), followed by analysis in Clampfit 10.2 (Molecular Devices). Substance-induced currents were normalized to the current elicited by a saturating concentration of 5-HT (10 μM) of the same cell. Holding currents were subtracted, and a 50 Hz digital Gaussian low-pass filter was applied to the traces for further analysis.

rSERT = rSERT (Rattus norvegicus, UniProt P31652); assay type: cell-based; design: expressed in transfected cells; conditions: for Mean diff, rSERT efflux ± Mon (Šídák's multiple comparisons test): drug alone vs drug + monensin (Mon)
Method: A day prior to the experiment, HEK293 cells stably expressing hSERT or rat SERT (rSERT) were seeded at a density of 100,000 cells per channel into 6 channel flow ibidi slides (Gräfelfing, Germany). On the day of the experiments, cells were preloaded with 0.1 μM [^3H]5-HT at 37 °C, 5% CO2 for 20 min. Subsequently, the slides were transferred to the superfusion apparatus ([59]). Cells were then washed with KHB for 15 min under a constant flow of 0.5 ml/min. Fractions were collected every 2 min in 8 ml vials containing 2 ml scintillation cocktail. Collection began with three baseline fractions using KHB, followed by four additional basal release fractions with KHB, either with or without 10 μM monensin. […] To assess residual radioactivity within the cells, they were lysed with 1% sodium dodecyl sulfate (SDS), and three final fractions were obtained. The measured tritiated substrate in each fraction was expressed as a percentage of the initial tritiated substrate present at the start of that fraction.
Uptake inhibition data were evaluated by one-way ANOVA followed by Tukey's multiple comparisons test. Release data were analyzed using a two-way ANOVA (batch release) or a mixed-effects model with Geisser-Greenhouse correction (time-dependent traces) employing Šidák correction for comparing differences between compounds with or without the addition of monensin.

hSERT = target: T3, hSERT (Homo sapiens, UniProt P31645); assay type: cell-based
T3 construct: expressed in transfected cells
Method: as §1, §2

rSERT, sequence (P31652 whole entry, the tested form may be a part): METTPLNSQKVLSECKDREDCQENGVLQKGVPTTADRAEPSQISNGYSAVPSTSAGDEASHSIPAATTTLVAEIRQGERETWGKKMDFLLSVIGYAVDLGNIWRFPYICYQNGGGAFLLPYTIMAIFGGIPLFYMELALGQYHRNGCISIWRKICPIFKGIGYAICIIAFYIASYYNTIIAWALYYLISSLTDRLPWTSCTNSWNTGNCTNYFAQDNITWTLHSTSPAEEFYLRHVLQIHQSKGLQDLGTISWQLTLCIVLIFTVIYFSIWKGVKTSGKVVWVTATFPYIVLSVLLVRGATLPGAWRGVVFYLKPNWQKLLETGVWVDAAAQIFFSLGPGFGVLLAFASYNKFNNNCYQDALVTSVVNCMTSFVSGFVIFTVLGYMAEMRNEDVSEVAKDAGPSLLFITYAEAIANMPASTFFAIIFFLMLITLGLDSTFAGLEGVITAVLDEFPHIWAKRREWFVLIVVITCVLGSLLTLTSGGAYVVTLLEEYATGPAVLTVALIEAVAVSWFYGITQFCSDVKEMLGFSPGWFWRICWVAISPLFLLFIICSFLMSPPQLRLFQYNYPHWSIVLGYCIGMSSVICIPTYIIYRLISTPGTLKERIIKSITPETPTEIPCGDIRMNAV
T2 sequence (P23975 whole entry): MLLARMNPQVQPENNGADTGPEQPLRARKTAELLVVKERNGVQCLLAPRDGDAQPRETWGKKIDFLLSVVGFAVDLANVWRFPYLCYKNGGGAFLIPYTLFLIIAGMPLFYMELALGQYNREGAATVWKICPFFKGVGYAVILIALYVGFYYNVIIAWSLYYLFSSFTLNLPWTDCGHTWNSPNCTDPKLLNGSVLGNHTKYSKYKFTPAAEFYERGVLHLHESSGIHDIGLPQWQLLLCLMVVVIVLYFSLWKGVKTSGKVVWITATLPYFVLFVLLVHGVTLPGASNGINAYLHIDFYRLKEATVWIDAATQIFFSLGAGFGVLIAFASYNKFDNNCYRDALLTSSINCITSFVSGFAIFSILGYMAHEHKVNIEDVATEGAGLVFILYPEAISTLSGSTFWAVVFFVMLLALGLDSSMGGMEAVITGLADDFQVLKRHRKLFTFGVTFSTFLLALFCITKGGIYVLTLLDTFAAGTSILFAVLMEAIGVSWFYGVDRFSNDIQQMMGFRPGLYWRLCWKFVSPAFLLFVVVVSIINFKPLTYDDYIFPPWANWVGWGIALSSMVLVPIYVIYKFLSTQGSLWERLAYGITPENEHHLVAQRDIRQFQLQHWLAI
T1 sequence (Q01959 whole entry): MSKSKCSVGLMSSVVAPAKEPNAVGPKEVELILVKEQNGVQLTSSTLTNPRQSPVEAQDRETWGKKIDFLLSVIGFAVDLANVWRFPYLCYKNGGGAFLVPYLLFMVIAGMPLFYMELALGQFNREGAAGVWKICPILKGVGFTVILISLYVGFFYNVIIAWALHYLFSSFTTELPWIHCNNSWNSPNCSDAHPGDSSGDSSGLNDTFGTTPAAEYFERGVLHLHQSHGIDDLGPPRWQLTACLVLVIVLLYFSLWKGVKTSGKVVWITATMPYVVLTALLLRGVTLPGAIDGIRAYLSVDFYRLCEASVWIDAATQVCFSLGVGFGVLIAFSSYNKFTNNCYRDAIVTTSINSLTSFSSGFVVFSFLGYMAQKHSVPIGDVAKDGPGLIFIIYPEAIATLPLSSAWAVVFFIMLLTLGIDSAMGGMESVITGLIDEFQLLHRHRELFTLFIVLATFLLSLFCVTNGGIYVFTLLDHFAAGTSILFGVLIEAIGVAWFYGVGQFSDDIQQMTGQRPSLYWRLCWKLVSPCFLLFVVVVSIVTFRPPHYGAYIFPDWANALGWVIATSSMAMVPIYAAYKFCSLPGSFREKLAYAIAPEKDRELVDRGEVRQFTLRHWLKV
T3 sequence (P31645 whole entry): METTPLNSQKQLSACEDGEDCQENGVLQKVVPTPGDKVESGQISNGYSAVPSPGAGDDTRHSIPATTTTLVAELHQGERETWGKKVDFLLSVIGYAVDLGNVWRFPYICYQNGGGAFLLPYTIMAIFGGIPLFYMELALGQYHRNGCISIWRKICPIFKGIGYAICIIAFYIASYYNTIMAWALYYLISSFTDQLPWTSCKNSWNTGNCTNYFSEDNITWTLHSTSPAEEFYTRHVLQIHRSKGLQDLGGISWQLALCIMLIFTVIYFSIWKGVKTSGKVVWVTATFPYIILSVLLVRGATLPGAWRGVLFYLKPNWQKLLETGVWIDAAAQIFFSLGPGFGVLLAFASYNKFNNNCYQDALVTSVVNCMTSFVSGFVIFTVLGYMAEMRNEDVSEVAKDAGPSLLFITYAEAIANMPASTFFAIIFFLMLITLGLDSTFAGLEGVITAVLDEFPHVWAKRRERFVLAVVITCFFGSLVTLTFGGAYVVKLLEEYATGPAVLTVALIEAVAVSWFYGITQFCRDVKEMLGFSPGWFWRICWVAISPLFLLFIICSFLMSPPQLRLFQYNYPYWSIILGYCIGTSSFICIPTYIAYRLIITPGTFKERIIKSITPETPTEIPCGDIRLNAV

Fc1ccc(C(OCCN2CCN(CCCc3ccccc3)CC2)c2ccc(F)cc2)cc1 [GBR12909, vanoxerine, reference compound]
hDAT-mediated efflux, predicted (LS) mean diff, No mon - Mon (hDAT): -0.7725
hNET-mediated efflux, predicted (LS) mean diff, No mon - Mon (hNET): -0.7072

NCCc1c[nH]c2ccc(O)cc12 [5-HT, serotonin]
current in native HEK293 cells without transfection (native HEK293 cells): no current could be recorded; also recorded: do not induce currents

CC(N)Cc1ccc(Cl)cc1 (stereo not shown) [pCA, para-chloroamphetamine]
Mean diff, rSERT efflux ± Mon (Šídák's multiple comparisons test) (rSERT; Row 1 (time fraction)): 0.1306
Mean diff, rSERT efflux ± Mon (Šídák's multiple comparisons test) (rSERT; Row 2 (time fraction)): 0.1761
Mean diff, rSERT efflux ± Mon (Šídák's multiple comparisons test) (rSERT; Row 3 (time fraction)): 0.2854
Mean diff, rSERT efflux ± Mon (Šídák's multiple comparisons test) (rSERT; Row 4 (time fraction)): 0.1377
Mean diff, rSERT efflux ± Mon (Šídák's multiple comparisons test) (rSERT; Row 5 (time fraction)): -0.4218
Mean diff, rSERT efflux ± Mon (Šídák's multiple comparisons test) (rSERT; Row 6 (time fraction)): -0.8916
Mean diff, rSERT efflux ± Mon (Šídák's multiple comparisons test) (rSERT; Row 7 (time fraction)): -1.153
Mean diff, rSERT efflux ± Mon (Šídák's multiple comparisons test) (rSERT; Row 8 (time fraction)): -7.649
Mean diff, rSERT efflux ± Mon (Šídák's multiple comparisons test) (rSERT; Row 9 (time fraction)): -4.816
Mean diff, rSERT efflux ± Mon (Šídák's multiple comparisons test) (rSERT; Row 10 (time fraction)): -3.007
Mean diff, rSERT efflux ± Mon (Šídák's multiple comparisons test) (rSERT; Row 11 (time fraction)): -2.599
Mean diff, rSERT efflux ± Mon (Šídák's multiple comparisons test) (rSERT; Row 12 (time fraction)): -2.043
magnitude of [3H]5-HT release in cells expressing rSERT compared to hSERT (rSERT; superfusion, HEK293 cells): significantly lower magnitude
hSERT-mediated efflux, predicted (LS) mean diff, No mon - Mon (hSERT): -18.87

C[C@H](N)Cc1ccccc1 [S-(+)-amphetamine, dextroamphetamine hemi sulfate salt, reference compound]
hDAT-mediated efflux, predicted (LS) mean diff, No mon - Mon (hDAT): -1.735
hNET-mediated efflux, predicted (LS) mean diff, No mon - Mon (hNET): -5.397
